Each structure is given as a SMILES string.

Series [1] concerns green peach aphid (Myzus persicae). The series can be described thus: Myzus persicae spray test. The following applies: 100 g/ha, after 6 days. The format is in vivo. The procedure: Myzus persicae—Spray Test Solvent: 78 parts by weight of acetone • • 1.5 parts by weight of dimethylformamide Emulsifier: alkylaryl polyglycol ether To produce a suitable appropriate active compound formulation, 1 part by weight of active compound is dissolved using the specified parts by weight of solvent and made up with water containing an emulsifier concentration of 1000 ppm until the desired concentration is attained. To produce further test concentrations, the preparation is diluted with emulsifier-containing water. Discs of Chinese cabbage leaves (Brassica pekinensis) infested by all stages of the green peach aphid (Myzus persicae) are sprayed with an active compound formulation of the desired concentration. After 6 days, the efficacy in % is determined. 100% means that all the aphids have been killed; 0% means that none of the aphids have been killed.

Series [2] has as its system greenhouse red spider mite (Tetranychus urticae). The experiment in a line: Tetranychus urticae spray test, OP-resistant (TETRUR). The format is in vivo. To be noted: 100 g/ha, spray, after 6 days. In short, it runs like this:
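Bean (Phaseolus vulgaris) leaf discs infested with all stages of OP-resistant Tetranychus urticae were sprayed with compound in acetone/DMF diluted in water with 1000 ppm emulsifier. Efficacy was scored as % mites killed after 6 days.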

Series [3] has as its system adult houseflies (Musca domestica). The series can be described thus: Musca domestica test (MUSCDO). The format is in vivo. The following applies: 100 ppm, after 2 days. The method, boiled down:
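Ten adult houseflies housed with a sponge carrying sugar solution plus compound, formulated in DMSO and diluted with water to test concentration. Mortality (%) scored after 2 days; 100% = all flies dead.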

Series [4] concerns adult cat fleas (Ctenocephalides felis). The experiment in a line: Ctenocephalides felis oral test (CTECFE). The format is in vivo. To be noted: 100 ppm, oral in cattle blood, after 2 days. In short, it runs like this:
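About 20 unfed adult fleas fed through a parafilm membrane on citrated cattle blood containing compound, added from a DMSO stock and diluted to test concentration. Kill % was scored after 2 days, where 100% means all fleas dead and 0% means none.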

For series [5], the system named is caterpillars of the armyworm (Spodoptera frugiperda). The experiment in a line: Spodoptera frugiperda spray test (SPODFR). The format is in vivo. The following applies: for efficacy: 100 g/ha, spray, after 7 days; for % efficacy: SPODFR, 7 dat. In short, it runs like this:
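Maize leaf discs sprayed with compound in acetone/dimethylformamide diluted in water with 1000 ppm alkylaryl polyglycol ether emulsifier, dried, then infested with armyworm caterpillars. Efficacy in % after 7 days (100% = all caterpillars killed, 0% = none).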

Series [6] can be described thus: log P by HPLC (EEC directive 79/831 Annex V.A8). The format is physicochemical. To be noted: 43° C., acidic range pH 2.7; for log P: HPLC, reversed-phase column (C18). In short, it runs like this:
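Measured by reversed-phase HPLC on a C18 column at 43 °C per EEC directive 79/831 Annex V.A8. Calibration used unbranched alkan-2-ones (C3–C16) of known log P.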

In series [7] the test system is engorged adult female cattle ticks (Boophilus microplus). The experiment in a line: Boophilus microplus injection test (BOOPMI inj). The format is in vivo. To be noted: assessed after 7 days. In short, it runs like this: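 1 μl of compound in DMSO is injected into the abdomen of 5 engorged females per group, which are then held in a climate-controlled room. After 7 days, egg-laying and egg fertility are scored, with unclear eggs kept about 42 days until hatch; 100% means no fertile eggs laid.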

The test system of series [8] is L1 larvae of the Australian sheep blowfly (Lucilia cuprina). The series can be described thus: Lucilia cuprina test (LUCICU). The format is in vivo. The following applies: 100 ppm, after 2 days. In short, it runs like this:
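About 20 L1 larvae placed in vessels with minced horsemeat containing compound (DMSO formulation diluted with water to test concentration). Kill in % scored after 2 days.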

The subject of series [9] is larvae of the mustard beetle (Phaedon cochleariae). The series can be described thus: Phaedon cochleariae spray test (PHAECO). The format is in vivo. The following applies: 100 g/ha, after 7 days. The method, boiled down:
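Compound dissolved in acetone/dimethylformamide and diluted with water containing 1000 ppm alkylaryl polyglycol ether emulsifier to test concentrations. Efficacy in % scored after 7 days: 100% means all beetle larvae killed, 0% none killed.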

In series [10] the test system is southern root-knot nematode (Meloidogyne incognita). The experiment in a line: Meloidogyne incognita test. The format is in vivo. The following applies: 20 ppm, after 14 days. The procedure: Meloidogyne incognita Test Solvent: 125.0 parts by weight of acetone To produce a suitable active compound formulation, 1 part by weight of active compound is mixed with the stated amount of solvent and the concentrate is diluted with water to the desired concentration. Vessels are filled with sand, active compound solution, an egg/larvae suspension of the southern root-knot nematode (Meloidogyne incognita) and lettuce seeds. The lettuce seeds germinate and the plants develop. The galls develop on the roots. After 14 days, the nematicidal efficacy in % is determined by the formation of galls. 100% means that no galls were found; 0% means that the number of galls on the treated plants corresponds to the untreated control.

Series [11] relates to L2 larvae of the banded cucumber beetle (Diabrotica balteata). The series can be described thus: Diabrotica balteata drench test (DIABBA). The format is in vivo. The following applies: 20 ppm, 8 dat. The procedure: Diabrotica balteata—Drench Test (DIABBA) Solvent: 7 parts by weight of dimethylformamide Emulsifier: 2 parts by weight of alkylaryl polyglycol ether To produce a suitable active compound formulation, 1 part by weight of active compound is mixed with the specified amounts of solvent and emulsifier, and the concentrate is diluted with water to the desired concentration, it being necessary to include the volume of soil which is drenched in the calculation. It should be ensured that a concentration of 40 ppm of emulsifier in the soil is not exceeded. To produce further test concentrations, water is used for dilution. […] After one day, 25 L2 larvae of the banded cucumber beetle (Diabrotica balteata) are added. After 8 days, the efficacy in % is determined 100% means that all 5 plants have germinated and grown; 0% means that none of the plants has emerged.

In series [12] the test system is Tick nymphs (Amblyomma hebraeum). The experiment in a line: Amblyomma hebraeum test (tick nymph immersion). The format is in vivo. To be noted: 100 ppm, after 42 days. The procedure: Amblyomma Hebaraeum Test Solvent: dimethyl sulphoxide To produce a suitable active compound formulation, 10 mg of active compound are mixed with 0.5 ml of dimethyl sulphoxide, and the concentrate is diluted with water to the desired concentration. Tick nymphs (Amblyomma hebraeum) are placed into perforated plastic beakers and immersed in the desired concentration for one minute. The ticks are transferred on filter paper into a Petri dish and stored in a climate-controlled cabinet. After 42 days, the kill in % is determined. 100% means that all of the ticks have been killed; 0% means that none of the ticks have been killed.

Series [13] relates to cattle ticks (Boophilus microplus) Parkhurst strain, SP-resistant. The experiment in a line: Boophilus microplus dip test. The format is in vivo. The following applies: 20 ppm, assessed after 7 days. The procedure: Boophilus microplus—Dip Test
Test animals: cattle ticks (Boophilus microplus) Parkhurst strain, SP-resistant
Solvent: dimethyl sulphoxide
10 mg of active compound are dissolved in 0.5 ml of dimethyl sulphoxide. For the purpose of producing a suitable formulation, the active compound solution is diluted with water to the concentration desired in each case.
This active compound preparation is pipetted into tubes. 8-10 engorged adult female cattle ticks (Boophilus microplus) are transferred into a further tube with holes. The tube is immersed into the active compound formulation, and all the ticks are completely wetted. After the liquid has run out, the ticks are transferred on filter discs into plastic dishes and stored in a climate-controlled room.
The efficacy is assessed after 7 days by laying of fertile eggs. Eggs which are not visibly fertile are stored in a climate-controlled cabinet until the larvae hatch after about 42 days. An efficacy of 100% means that none of the ticks has laid any fertile eggs; 0% means that all the eggs are fertile.

As for `Cn1c(C(=O)NC(c2cc(Cl)c(Cl)c(Cl)c2)C(F)(F)F)cc2cc(C(=O)NC3(C(N)=S)CC3)c(Cl)cc21` (stereo not shown) [I-20], the efficacy in series [1] was 90%; in [2], 100%; in [5] it was 100%; in series [9], 100%. Besides, the “efficacy (kill in %)” value in series [3], in series [4] and in [8] was 100% throughout. Moreover, the “% efficacy” value in [5] (0.8 g/ha) and in series [5] (4 g/ha) was 100% throughout. For the same compound, the “log P” value in [6] came out at 4.07. In [7], the “efficacy (laying of fertile eggs)” value amounted to 100%.

As to `C#CCn1c(C(=O)NC(c2ccc(Cl)c(C(F)(F)F)c2)C(F)(F)F)cc2cc(C(=O)NC3(C(N)=S)CC3)c(Cl)cc21` (stereo not shown) [I-19], the “nematicidal efficacy (formation of galls)” value in [10] stood at 90%. The efficacy in [2], in series [5] and in [9] was 100% in each case. In addition, the “efficacy (kill in %)” value in series [3], in series [4] and in series [8] was 100% throughout. Further, the “log P” value in series [6] is recorded as 3.73. The “efficacy (laying of fertile eggs)” value in series [7] was found to be 100%. The “% efficacy” value in series [11] was 100%.

On to `CCn1c(C(=O)NC(c2ccc(F)c(C(F)(F)F)c2)C(F)F)cc2cc(C(=O)NC3(C(N)=S)CC3)c(Cl)cc21` (stereo not shown) [I-32], for which the efficacy in series [1] is on record as 90%; in series [2], 100%; in series [5], 100%; in series [9] it was 100%. Also, the “efficacy (kill in %)” value in series [4] and in series [8] was 100% each time. In addition, in [6], the “log P” value was 3.41. Moreover, the “efficacy (laying of fertile eggs)” value in series [7] stood at 100%.

As for `CCn1c(C(=O)NC(c2cc(Cl)c(Cl)c(F)c2F)C(F)(F)F)cc2cc(C(=O)NC3(C(N)=S)CC3)c(Cl)cc21` (stereo not shown) [I-29], the efficacy worked out at 100% in series [1], 90% in series [2], 100% in [5] and 100% in series [9]. For the same compound, the “efficacy (kill in %)” value in series [3], in [4] and in [8] was 100% throughout. Moreover, in series [6], the “log P” value is listed as 4.27. For the same compound, in series [7], the “efficacy (laying of fertile eggs)” value came to 100%.

Consider `CCn1c(C(=O)NC(c2ccc(F)c(C(F)(F)F)c2)C(F)(F)F)nc2cc(C(=O)NC3(C(N)=S)CC3)c(Cl)cc21` (stereo not shown) [I-30, N5-(1-Carbamothioylcyclopropyl)-6-chloro-1-ethyl-N2-{2,2,2-trifluoro-1-[4-fluoro-3-(trifluoromethyl)phenyl]ethyl}-1H-benzimidazole-2,5-dicarboxamide], for which the efficacy in series [2], in series [5] and in series [9] was 100% each time. Moreover, the “efficacy (kill in %)” value in series [3], in [4], in series [12] and in [8] was 100% each time. Further, in series [6], the log partition coefficient (log P) is 3.46. The compound further came in with a chromatographic logP in [6] (reversed-phase C18 HPLC column, pH 2.7, HPLC) of 3.56. Moreover, the “efficacy (laying of fertile eggs)” value in [7] and in series [13] was 100% each time.

For the origin of these results see patent US9802895B2, “Indole and benzimidazolecarboxamides as insecticides and acaricides” (BAYER CROPSCIENCE AKTIENGESELLSCHAFT, priority 2014, dated 2017).
